What was measured:
[1] = test system: primary acute myelogenous leukemia (AML) cells; experiment: Assay for antileukemic activity (Annexin V/7-AAD apoptosis analysis by flow cytometry); format: cell-based; conditions: 24 hours of culture
Procedure: For apoptosis analysis, one million primary acute myelogenous leukemia (AML) cells were washed with cold PBS and resuspended in 200 microliters of Annexin binding buffer (10 mM HEPES/NaOH pH 7.4; 140 mM NaCl; 2.5 mM CaCl2). Annexin V-FITC (Pharmingen) and 0.25 mg/mL 7-AAD (7-aminoactinomycin D, Molecular Probes, CA) were added and the tubes were incubated at room temperature in the dark for 15 minutes. Cells were then diluted with 200 microliters of Annexin binding buffer and analyzed immediately by flow cytometry. Viable cells were identified as failing to label with Annexin V or 7-AAD. Cells beginning to die label with Annexin V, and as membrane integrity is lost, will also label with 7-AAD. […] Data are normalized to untreated control specimens. The data are in Table 1 for aminoparthenolide derivatives and Table 2 for the salts of some aminoparthenolides.

[2] = test system: Healthy human bone marrow cells; experiment: Cytotoxicity to healthy bone marrow cells (same Annexin V/7-AAD assay); format: cell-based; conditions: 10 μM
Procedure: For apoptosis analysis, one million primary acute myelogenous leukemia (AML) cells were washed with cold PBS and resuspended in 200 microliters of Annexin binding buffer (10 mM HEPES/NaOH pH 7.4; 140 mM NaCl; 2.5 mM CaCl2). Annexin V-FITC (Pharmingen) and 0.25 mg/mL 7-AAD (7-aminoactinomycin D, Molecular Probes, CA) were added and the tubes were incubated at room temperature in the dark for 15 minutes. Cells were then diluted with 200 microliters of Annexin binding buffer and analyzed immediately by flow cytometry. Viable cells were identified as failing to label with Annexin V or 7-AAD. Cells beginning to die label with Annexin V, and as membrane integrity is lost, will also label with 7-AAD. For each parthenolide derivative, the percentage of viable cells was determined after 24 hours of culture at a 10 micromolar concentration. Data are normalized to untreated control specimens. The data are in Table 1 for aminoparthenolide derivatives and Table 2 for the salts of some aminoparthenolides.
Healthy human bone marrow cells were used in the above assay to test the cytotoxicity of parthenolide. Eighty-five percent of the normal cells survived 10 μM of parthenolide. All the aminoparthenolides evaluated afforded results similar to parthenolide, i.e. the survival rate of healthy human bone marrow cells was over 85% at a concentration of 10 μM.

[3] = test system: AML cells (AML stem cell compartment); experiment: Human-mouse xenograft: NOD/SCID engraftment of AML cells treated in vitro; format: in vivo, human cells in NOD/SCID mice; conditions: 7.5 micromolar in vitro for 12-18 hours, bone marrow analysed after 6-8 weeks (CD45)
Procedure: (§1) To assess the effect of parthenolide on primary human stem cell populations, experiments were conducted using transplantation into immune deficient NOD/SCID mice. […] For each experiment, cryopreserved mononuclear cell specimens from normal or AML donors were thawed, and treated in vitro with 7.5 micromolar parthenolide for 12-18 hours. Following culture, 5-10 million cells/animal were injected intravenously into sublethally irradiated (300 Rad) NOD/SCID mice. After 6-8 weeks, animals were sacrificed and bone marrow was analyzed for the presence of human cells using flow cytometry as previously described (Guzman et al., Proc Natl Acad Sci USA 2002; 99: 16220-162253). Human specific antibodies for CD45 were used to assess the level of total engraftment.

[4] = test system: normal hematopoietic stem cells; experiment: Human-mouse xenograft: NOD/SCID engraftment of normal donor cells treated in vitro; format: in vivo; conditions: 7.5 micromolar in vitro for 12-18 hours, bone marrow analysed after 6-8 weeks (CD45)
Procedure: as §1

[5] = test system: hormone refractory prostate cancer cell line CWR22Rv1; experiment: MTS-PMS cellular proliferation assay; format: cell-based; conditions: at 5 μm, CWR22 MTS-PMS assay
Procedure: (§2) A 96-well U-bottomed plate (Becton Dickinson Labware, Franklin Lakes, N.J.) at a concentration of 5,000 cells per 50 microliters […] of media was incubated in 5% CO2 at 37° C. for 24 hours. Varying compound concentrations in […] of media were added to the media 24 hours later. Colorimetric readings were obtained using the MTS/PMS system and an ELISA plate reader, after 48 hours of exposure to DMAPT. The readings obtained for each concentration tested were from an average of eight wells. Each experiment was expressed as a percentage of the solvent control and completed at least three times with consistent results. The results presented are an average of three experiments. The hormone refractory prostate cancer cell line CWR22Rv1 was treated with increasing concentrations of parthenolide and DMAPT. for three hours Both parthenolide and DMAPT reduced cellular proliferation by 50% at 5 μm in the CWR22 MTS-PMS assay. Cellular proliferation was also measured in the MTS-PMS assay using four lung cancer cell lines treated with parthenolide and derivatives PIPT ((11S,11,13-dihydro,13-(piperidin-1-yl)parthenolide), 4MEPT (11S,11,13-dihydro,13-(4-methylpiperidin-1-yl)parthenolide) and MAPT (11S,11,13-dihydro,13-dimethylaminoparthenolide). Parthenolide and its derivatives inhibited cellular proliferation in a dose dependent manner between 2 and 10 μM with 70% inhibition at 10 μM in A549, 50% in H460, 40% in H-23 and 40% in H522 (FIGS. 2-5).

[6] = test system: lung cancer cell line A549; experiment: MTS-PMS cellular proliferation assay; format: cell-based; conditions: Homo sapiens
Procedure: as §2

[7] = test system: lung cancer cell line H-23; experiment: MTS-PMS cellular proliferation assay; format: cell-based
Procedure: as §2

[8] = test system: lung cancer cell line H460; experiment: MTS-PMS cellular proliferation assay; format: cell-based; conditions: Homo sapiens, NCI-H460
Procedure: as §2

[9] = test system: lung cancer cell line H522; experiment: MTS-PMS cellular proliferation assay; format: cell-based; conditions: Homo sapiens, NCI-H522
Procedure: as §2

[10] = test system: breast cancer cell line hbl-100; experiment: Clonogenic assay; format: cell-based; conditions: hbl-100, 2 μm concentration (parthenolide: similar dosage ranges)
[11] = test system: breast cancer cell line mdl-231; experiment: Clonogenic assay; format: cell-based; conditions: mdl-231, 2 μm concentration (parthenolide: similar dosage ranges)
[12] = test system: breast cancer cell line 436; experiment: Clonogenic assay; format: cell-based; conditions: 436 cells, 2 μm concentration (parthenolide: similar dosage ranges)
[13] = Oral bioavailability in mice: plasma level by LC-MS; format: in vivo; conditions: mouse, 40 mg/kg oral, LC-MS, average of 5 mice, read-out: plasma level one hour after oral gavage
Procedure: Preliminary in vivo work was conducted to determine the bioavailability and toxicity of this agent in mice.

[14] = test system: radiation sensitive cell line A549; experiment: Radiation sensitisation by pretreatment, survival fraction; format: cell-based; conditions: A549, 2.5 micromolar pretreatment
Source text: The radiation sensitive cell line A549 was pretreated with parthenolide concentrations ranging from 0 to 2.5 micromolar. The cells were then subjected to ionizing radiation doses ranging from 0-6Gy and survival fraction of the cells determined. […] Cells not receiving pre-treatment with parthenolide had greater than 50% survival fraction at the highest radiation dose of 6Gy and over 90% survival at 2Gy.

[15] = 10 μM, normalized to untreated control

Molecule	Antileukemic activity [1, 15]	other results
C=CCN(CC=C)CC1C(=O)OC2C1CCC(=C)C1CCC(=C)C12 (centres unmarked) [11H, 13-(N-Diallyl)-dehydrocostuslactone]	10 μM, 2%	–
CC1=CCCC2(C)OC2C2OC(=O)C(CN3CCCCCC3)C2CC1 (centres unmarked) [HomoPipPT, 11S,11,13-Dihydro,13-(homopiperidin-1-yl)parthenolide]	10 μM, 40%	–
C=C1CCC2C(CN(CC)CC)C(=O)OC2C2C(=C)CCC12 (centres unmarked) [11H, 13-(N,N-Diethylamino)-dehydrocostuslactone]	10 μM, 5%	–
11S,11,13-Dihydro,13-(morpholin-1-yl)parthenolide [MorPT]	–	Antileukemic activity ([1]; 20 μM): 20 μM, 20%
C=C1CCC2C(CN(C)C)C(=O)OC2C2C(=C)CCC12 (centres unmarked) [11H, 13-(N,N-Dimethylamino)-dehydrocostuslactone]	10 μM,12%	–
11S,11,13-Dihydro,13-(4-methylpiperidin-1-yl)parthenolide [Compound 4MePipPT]	10 μM, 83%	–
C/C1=C\CC[C@@]2(C)O[C@H]2[C@H]2OC(=O)[C@H](CN3CCN(C)CC3)[C@@H]2CC1 [Compound 4MePizPT, 11S,11,13-Dihydro,13-(4-methylpiperazin-1-yl)parthenolide]	10 μM, 7%	–
C=C1CCC2C(CN(C)CCCCC)C(=O)OC2C2C(=C)CCC12 (centres unmarked) [11H, 13-(N-Methyl-N-pentylamino)-dehydrocostuslactone]	10 μM, 0%	–
11S,11,13-Dihydro,13-diethylaminoparthenolide [DEAPT]	10 μM, 60%	–
CC1=CCCC2(C)OC2C2OC(=O)C(CNC3CC3)C2CC1 (centres unmarked) [11S,11,13-Dihydro,13-cyclopropylaminoparthenolide]	10 μM, −6%	–
CCNCC1C(=O)OC2C1CCC(C)=CCCC1(C)OC21 (centres unmarked) [11S,11,13-Dihydro,13-ethylaminoparthenolide]	10 μM, 2%	–
11S,11,13-Dihydro,13-(tert-butylamino)parthenolide [tBAPT]	10 μM, 20%	–
11S,11,13-Dihydro,13-methylbutyl aminoparthenolide	10 μM, 68%	–
C=C1CCC2C(CN3CCOCC3)C(=O)OC2C2C(=C)CCC12 (centres unmarked) [11H, 13-(N-Morpholine)-dehydrocostuslactone]	10 μM, 10%	–
CC1=CCCC2(C)OC2C2OC(=O)C(CN3CCCC3)C2CC1.Cl (centres unmarked) [11S, 11,13-Dihydro,13-(pyrrolidin-1-yl)parthenolide hydrochloride]	10 μM, 85%	–
C=C1CCC2C(CN(C)CCC)C(=O)OC2C2C(=C)CCC12 (centres unmarked) [11H, 13-(N-Methyl-N-propylamino)-dehydrocostuslactone]	10 μM, 1%	–
CC1=CCCC2(C)OC2C2OC(=O)C(CN3CCCCCCC3)C2CC1 (centres unmarked) [HeptaMePipt, 11S,11,13-Dihydro,13-(heptamethyleneimin-1-yl)parthenolide]	10 μM, 10%	–
C=C1CCC2C(CN3CCCC3)C(=O)OC2C2C(=C)CCC12 (centres unmarked) [11H, 13-(N-Pyrrolidine)-dehydrocostuslactone]	10 μM, 20%	–
C/C1=C\CC[C@@]2(C)O[C@H]2[C@H]2OC(=O)[C@H](CN3CCCCC3)[C@@H]2CC1 [PipPT, 11S,11,13-Dihydro,13-(piperidin-1-yl)parthenolide]	–	Antileukemic activity ([1]; 2.5 μM): 2.5 μM, 71%; Antileukemic activity ([1]; 5 μM): v5 μM, 91%
C=C1CCC2C(CN3CCCCC3)C(=O)OC2C2C(=C)CCC12 (centres unmarked) [11H, 13-(N-Piperidine)-dehydrocostuslactone]	10 μM, 14%	–
C=C1C(=O)O[C@@H]2[C@H]3O[C@]3(C)CC/C=C(\C)CC[C@@H]12 [Parthenolide]	10 μM, 84%	survival rate of healthy human bone marrow cells [2]: Eighty-five; level of engraftment of treated AML cells in NOD/SCID mice [3]: dramatically reduced; level of engraftment of treated normal cells in NOD/SCID mice [4]: no reduction in engraftment; reduction of cellular proliferation [5]: 50%; inhibition at 10 µM [6]: 70%; inhibition at 10 µM [7]: 40%; inhibition at 10 µM [8]: 50%; inhibition at 10 µM [9]: 40%; inhibition of proliferation [10]: reduced proliferation; inhibition of proliferation [11]: reduced proliferation; inhibition of proliferation [12]: reduced proliferation; concentration at 1 h [13]: ~200 nM; survival fraction ([14]; 2Gy): 10%; survival fraction ([14]; 6Gy): less than 1%
C#CCNCC1C(=O)OC2C1CCC(C)=CCCC1(C)OC21 (centres unmarked) [11S,11,13-Dihydro,13-propargylaminoparthenolide]	10 μM, 7%	–
11S, 11,13-Dihydro,13-(4-methylpiperidin-1-yl)parthenolide hydrochloride	10 μM, 62%	–
CNC[C@H]1C(=O)O[C@H]2[C@H]1CC/C(C)=C/CC[C@@]1(C)O[C@@H]21 [11S,11,13-Dihydro,13-methylaminoparthenolide]	10 μM, 4%	–
11S,11,13-dihydro,13-(piperidin-1-yl)parthenolide hydrochloride	10 μM, 88%	–
11S,11,13-Dihydro,13-(pyrrolidin-1-yl)parthenolide [PyrPT]	10 μM, 85%	Antileukemic activity ([1]; 5 μM): 5 μM, 23%; Antileukemic activity ([1]; 20 μM): 20 μM, 95%
C=C1CCC2C(CN(C)CCCC)C(=O)OC2C2C(=C)CCC12 (centres unmarked) [11H, 13-(N-Butyl-N-methylamino)-dehydrocostuslactone]	10 μM, 8%	–
C=C1CCC2C(CNCCC)C(=O)OC2C2C(=C)CCC12 (centres unmarked) [11H, 13-(N-Propylamino)-dehydrocostuslactone]	10 μM, 24%	–
11S,11,13-Dihydro,13-methyl pentyl aminoparthenolide	10 μM, 45%	–
C=C1CCC2C(CN(CC)Cc3ccccc3)C(=O)OC2C2C(=C)CCC12 (centres unmarked) [11H, 13-(N-Ethyl-N-benzyl)-dehydrocostuslactone]	10 μM, 13%	–
